Results published in paper PMC6268439, “Tebrophen — An Old Polyphenol Drug with Anticancer Potential ^†” (Molecules, 2012).

How the values were obtained:
Type in all cases: biochemical
ZAP-70 = biological target: T1, ZAP-70 (Homo sapiens, UniProt P43403); assay: ELISA kinase assay with purified kinase expressed in Sf9, poly Glu:Tyr ([…]) substrate
T1 construct: gene ZAP70
T1 sequence (P43403 1-619): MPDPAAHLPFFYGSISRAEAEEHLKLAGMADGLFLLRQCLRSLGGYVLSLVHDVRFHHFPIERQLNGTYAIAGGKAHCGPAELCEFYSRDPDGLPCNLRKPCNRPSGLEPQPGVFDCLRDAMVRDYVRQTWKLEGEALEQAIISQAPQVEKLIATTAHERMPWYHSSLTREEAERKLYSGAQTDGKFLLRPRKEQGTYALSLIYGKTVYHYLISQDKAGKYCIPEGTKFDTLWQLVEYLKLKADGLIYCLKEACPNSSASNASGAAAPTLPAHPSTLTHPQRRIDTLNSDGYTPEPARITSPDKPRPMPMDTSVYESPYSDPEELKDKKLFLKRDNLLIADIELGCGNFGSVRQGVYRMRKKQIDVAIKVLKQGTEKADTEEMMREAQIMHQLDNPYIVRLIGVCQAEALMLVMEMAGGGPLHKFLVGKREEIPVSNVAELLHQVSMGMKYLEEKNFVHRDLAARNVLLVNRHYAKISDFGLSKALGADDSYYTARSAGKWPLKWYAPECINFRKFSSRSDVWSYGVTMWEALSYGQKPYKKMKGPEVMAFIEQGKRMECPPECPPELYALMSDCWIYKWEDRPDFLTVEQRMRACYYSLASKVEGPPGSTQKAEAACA

[1] = biological target: T2, Dipeptidyl peptidase IV (DPPIV/CD26) (Homo sapiens, UniProt P27487); assay: enzyme assay with H-Gly-Pro-pNA substrate; […] inhibition at […]
T2 construct: gene DPP4
T2 sequence (P27487 39-766): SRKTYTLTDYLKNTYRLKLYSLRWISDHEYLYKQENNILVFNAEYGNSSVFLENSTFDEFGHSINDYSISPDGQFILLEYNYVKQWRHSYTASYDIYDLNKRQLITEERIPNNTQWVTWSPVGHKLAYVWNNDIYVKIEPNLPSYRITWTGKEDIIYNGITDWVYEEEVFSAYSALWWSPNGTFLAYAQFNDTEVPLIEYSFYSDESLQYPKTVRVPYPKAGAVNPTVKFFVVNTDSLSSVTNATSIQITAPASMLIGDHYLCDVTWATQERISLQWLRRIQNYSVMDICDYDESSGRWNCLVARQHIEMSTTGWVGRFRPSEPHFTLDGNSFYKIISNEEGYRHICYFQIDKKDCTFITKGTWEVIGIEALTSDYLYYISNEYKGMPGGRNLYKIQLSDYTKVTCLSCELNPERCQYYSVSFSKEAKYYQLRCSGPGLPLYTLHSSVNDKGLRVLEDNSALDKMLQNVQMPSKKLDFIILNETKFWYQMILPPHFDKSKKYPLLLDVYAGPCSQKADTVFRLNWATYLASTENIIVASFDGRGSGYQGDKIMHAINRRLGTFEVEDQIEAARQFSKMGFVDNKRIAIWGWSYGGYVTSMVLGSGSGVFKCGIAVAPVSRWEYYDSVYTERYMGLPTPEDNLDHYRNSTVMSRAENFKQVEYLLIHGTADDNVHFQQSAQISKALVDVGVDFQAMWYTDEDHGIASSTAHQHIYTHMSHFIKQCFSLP

Lck = Lck (Homo sapiens, UniProt P06239); assay: ELISA kinase assay with purified kinase expressed in Sf9, poly Glu:Tyr ([…]) substrate
Chain of Lck (P06239 2-509): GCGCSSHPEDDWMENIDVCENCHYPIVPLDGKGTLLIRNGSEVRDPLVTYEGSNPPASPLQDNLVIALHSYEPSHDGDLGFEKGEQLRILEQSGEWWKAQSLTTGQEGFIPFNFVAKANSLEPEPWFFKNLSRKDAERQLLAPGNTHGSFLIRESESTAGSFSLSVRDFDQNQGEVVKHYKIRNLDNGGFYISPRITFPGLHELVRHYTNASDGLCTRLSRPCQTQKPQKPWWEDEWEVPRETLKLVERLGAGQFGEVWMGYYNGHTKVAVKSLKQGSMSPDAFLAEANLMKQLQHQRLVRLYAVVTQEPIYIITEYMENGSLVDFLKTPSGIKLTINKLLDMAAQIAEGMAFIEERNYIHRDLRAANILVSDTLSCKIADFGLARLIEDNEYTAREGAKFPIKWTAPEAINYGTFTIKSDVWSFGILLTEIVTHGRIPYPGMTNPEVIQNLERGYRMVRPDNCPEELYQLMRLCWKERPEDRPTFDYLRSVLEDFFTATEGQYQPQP

For `Oc1c(Br)cc(-c2cc(Br)c(O)c(Br)c2O)c(O)c1Br` [tebrophen, 3,3',5,5'-tetrabromobiphenyl-2,2',4,4'-tetrol], the IC50 (ZAP-70) was 0.34 µM, the inhibition at 80 µM [1] was 41% and the IC50 (Lck) was 16 µM.
